{"source": "patent US20250221936A1", "about": "“ENGINEERED HEMICHANNELS, ENGINEERED VESICLES, AND USES THEREOF” (VIRGINIA TECH INTELLECTUAL PROPERTIES, INC., priority 2018, published 2025)", "key": {"[1]": {"system": "human MGMT-deficient and TMZ-resistant GBM cells", "details": "cited from earlier work"}, "[2]": {"system": "choroidal neovascularization", "details": "mouse, in vivo; cited from earlier work"}, "GST-Cx43 CT QQ/KK": {"molecular_target": "T1, GST-Cx43 CT QQ/KK (Rattus norvegicus, UniProt P08050, K345Q/K346Q)", "T1 construct": "pGEX-6-P2 Cx43 CT amino acids 255-382; made in house; host or cells: E. coli BL21", "T1 sequence (P08050 255-382 K345Q/K346Q)": "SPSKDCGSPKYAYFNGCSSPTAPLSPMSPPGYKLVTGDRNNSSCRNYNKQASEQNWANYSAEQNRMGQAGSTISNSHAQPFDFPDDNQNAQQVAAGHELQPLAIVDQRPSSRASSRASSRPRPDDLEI", "assay": "EDC cross-linking, Cx43 CT QQ/KK mutant substrate", "assay_type": "binding", "details": "5, 10 and 25 μM", "procedure": "To characterize the interaction between the Cx43 CT substrate and peptides, the in vitro kinase assay was performed as above with modification and the constituents then subjected to a cross-linking reaction. The assay buffer used was 20 mM 3-(N-morpholino) propanesulfonic acid (MOPS), pH 7.2. All other reagents present in the kinase reaction were maintained as described above. The reaction was allowed to proceed at 37° C. for 15 minutes. Afterwards, the carbodiimide crosslinker 1-Ethyl-3-(3-dimethylaminopropyl) carbodiimide HCl (EDC) (Thermo, 22980) was added to each solution for a final concentration of 20 mM. The solution was allowed to cross-link for one hour at room temperature. The reaction was stopped by the addition of 4×LDS loading buffer, boiled for 5 minutes and subsequently separated by PAGE. The resulting gel was stained in Coomassie brilliant blue (Sigma, B0770) for two hours and destained in a solution of 4% methanol 7% acetic acid overnight. Gel bands were subsequently excised for mass spectrometric analysis. For the direct interaction between protein and peptides, PBS, pH 7.5 was used as the coupling buffer. The protein (50 μg/ml) and peptide (25 μM) were allowed to react at room temperature for one hour before EDAC was added to the reaction mixture. The reaction was Western blotted for Cx43, GST or NeutroAvidin."}, "[3]": {"system": "Human umbilical vein endothelial cells (HUVECs)", "details": "cited from earlier work"}, "[4]": {"system": "chronic, slow healing skin wounds", "details": "diabetic foot ulcers and venous leg ulcers; cited from earlier work"}, "cryo-injured LV wall": {"system": "cryo-injured LV wall", "details": "cited from earlier work; for LV function: 8 week time course; for Cx43 in myocytes bordering the injury: mouse, in vivo; for arrhythmias: pacing and S1-S2 protocols"}, "[5]": {"system": "U87 MG glioblastoma cells", "details": "cited from earlier work"}, "heart allograft": {"system": "heart allograft", "details": "100 μM in UW solution, cited from earlier work"}, "[6]": {"system": "4 mm long incisional skin injury", "details": "60 μM in 20% pluronic gel, cited from earlier work"}, "silicon wafer implants": {"system": "silicon wafer implants", "details": "24 hours; cited from earlier work"}, "cancer stem cells CSCs": {"system": "cancer stem cells CSCs", "assay": "Cancer stem cell survival", "assay_type": "cell-based", "text": "In another example, JM peptides can selectively target cancer stem cells CSCs. JM2 specific interaction with microtubules concomitantly with a loss of Cx43/microtubule complexing and a decrease in cell-cell communication in CSCs derived from patient tumors was confirmed. […] Current research includes the development of JM2-loaded biodegradable nanoparticles for JM2 sustained delivery in preparation for future clinical trials. In sum, the Cx43 mimetic peptide JM2 represents a novel and potent therapeutic opportunity to target chemoresistant CSCs in cancer treatment. This was described in (Lamouille et al., targeting glioblastoma cancer stem cells with a novel Connexin43 mimetic peptide [abstract]. In: Proceedings of the American Association for Cancer Research Annual Meeting 2017; 2017 Apr. 1-5; Washington, DC. Philadelphia (PA): AACR; Cancer Res 2017;77 (13 Suppl): Abstract nr 4765. doi: 10.1158/1538-7445.AM2017-4765), which is incorporated by reference. Further results can indicate that cancer stem cells derived from other cancers respond similarly to JM peptides. […]"}, "silicone implant": {"system": "silicone implant", "assay": "Silicone implants coated with JM2", "assay_type": "in vivo, rat", "details": "180 micomolar in 25% pluronic gel", "procedure": "25% pluronic F127 gel (Sigma-Aldrich, St. Louis, MO 63103), which is liquid at 4° C., but gels at 37° C., was used as a delivery vehicle for JM2 peptide. Pluronic gel has mild surfactant properties that aid in peptide dispersion. The JM2 peptide was reconstituted in IX PBS containing the 25% pluronic gel to a final concentration of 180 micomolar.\nAnimals were anesthetized with 2.75% isoflurane balance oxygen gas. After achievement of general anesthesia, the surgical site consisting of the animal's upper back was prepped by clipping fur down to skin and applying betadine scrub solution in triplicate. Sterile towels were draped to define the surgical field. PWAS Silicone sensors (5 mm diameter) were autoclave sterilized and warmed to 37° C. prior to implantation. For the treatment group, implants were dipped twice in JM2 pluronic solution prior to implantation. For the vehicle control group, the implants were dipped in saline only. This coating procedure produced an even coating of the implant. A muscle pocket was created under the latissimus dorsi muscle and implants were inserted. 50 μL of the corresponding solution was also injected into the muscle pocket prior to closure. The muscles were reapproximated with 4-0 Prolene (Ethicon Inc, Somerville, NJ 08876) and the skin closed with 4-0 Prolene and skin staples. […]"}}, "note": "Entries after “also recorded” stand apart in the source; their conditions may differ. Like-named read-outs stand apart in the source and are kept apart here.", "data": [{"sequence": "RQPKIWFPNRRKPWKKRPRPDDLEI [alpha CT1]", "values": [{"measurement": "sensitivity to TMZ", "setting": "[1]", "result": "sensitized human MGMT-deficient and TMZ-resistant GBM cells to TMZ treatment"}, {"measurement": "CNV injury spread and retinal function (ERG)", "setting": "[2]", "result": "reduced CNV injury spread and improved retinal function"}, {"measurement": "EDC cross-linking to Cx43 CT QQ/KK mutant substrate", "setting": "GST-Cx43 CT QQ/KK", "result": "no evidence of cross-linking"}, {"measurement": "protection from oxidative stress", "setting": "[3]; H2O2", "result": "significantly protects endothelial cells from H2O2"}, {"measurement": "cellular injury", "setting": "[3]; UW solution containing 100 μM", "result": "significantly reduced cellular injury as compared to untreated controls"}, {"measurement": "IL-8 secretion and MHC II expression", "setting": "[3]; UW solution supplemented with peptide", "result": "significant reduction in IL-8 secretion and MHC Class II expression"}, {"measurement": "TEER and IL-8 secretion post reperfusion", "setting": "[3]; UW+ACT1 solution", "result": "improved TEER and reduced IL-8 secretion"}, {"measurement": "healing of skin wounds", "setting": "[4]", "result": "high level of efficacy in promoting the healing of two types of chronic, slow healing skin wounds; also recorded: increased the healing rate of slow-healing skin wounds"}, {"measurement": "LV function", "setting": "cryo-injured LV wall", "result": "sustained improvements in ventricular contractile performance over an 8-week study period"}, {"measurement": "LV function", "setting": "cryo-injured LV wall; listed as ACTI", "result": "significant improvement in LV diastolic and systolic function"}, {"measurement": "Cx43 in myocytes bordering the injury", "setting": "cryo-injured LV wall", "result": "reduced Cx43 GJ remodeling in injury border zone tissues"}, {"measurement": "Cx43 in myocytes bordering the injury", "setting": "cryo-injured LV wall; listed as ACTI", "result": "higher and more uniform, intercalated-disk-localized and pS368 phosphorylated Cx43"}, {"measurement": "arrhythmias", "setting": "cryo-injured LV wall", "result": "decreased propensity of the injured hearts to develop inducible arrhythmias"}, {"measurement": "arrhythmias", "setting": "cryo-injured LV wall; listed as ACTI", "result": "dramatically reduced (p<0.05) frequency and severity of arrhythmias"}, {"measurement": "aggregation", "setting": "[5]", "result": "higher degree of aggregation"}, {"measurement": "Evan's Blue sequestration into the transplanted heart", "setting": "heart allograft; 6 h at 4° C., 30 mins post reperfusion", "result": "significantly reduces Evan's Blue sequestration into the transplanted heart"}, {"measurement": "graft injury, serum cardiac troponin I, neutrophils", "setting": "heart allograft; 6 hrs at 4° C.", "result": "significantly reduced cardiac injury, reduced serum cardiac troponin I and significantly reduced neutrophils"}, {"measurement": "appearance of incisional injury", "setting": "[6]; at 7 days", "result": "smoother and less scarred appearance"}, {"measurement": "appearance of incisional injury", "setting": "[6]; by 48 hours", "result": "significantly more closed, less inflamed, less swollen"}]}, {"sequence": "VFFKGVKDRVKGRSD [JM2]", "values": [{"measurement": "tissue reaction zone", "setting": "silicon wafer implants", "result": "substantially narrower tissue reaction zone"}, {"measurement": "viability and self-renewal of colon cancer stem cells", "setting": "cancer stem cells CSCs", "result": "effectively reduced the viability and self-renewal of cancer stem cells from patients with colon cancer"}, {"measurement": "healing, capsule formation, scarring and fibrosis", "setting": "silicone implant", "result": "improved healing and decreased capsule formation, scarring and fibrosis"}, {"measurement": "inflammation and skeletal muscle necrosis", "setting": "silicone implant", "result": "decreased inflammation and reduced skeletal muscle necrosis"}]}]}
